Source: patent US9539272B2, “HDAC 6 inhibitor-based methods for treating cancer” (SLOAN-KETTERING INSTITUTE FOR CANCER RESEARCH, priority 2009, dated 2017)
“And” between values parts separate entries of the source, which are not always exact repeats. Equal values may be shown once. “Also recorded” adds a separate entry of the source. Blank lines part the entries; values can stand above or below the compound they belong to.

What was measured:
[1] = system: acetylated α-tubulin and acetylated histone H3 in LNCaP cells; experiment: Accumulation of acetylated α-tubulin and acetylated histone H3 in LNCaP cells (Western blot); format: cell-based, human; settings: BAHA 1.0 or 1.5 μM, SAHA 1.5 and 2.0 μM
Description: 2×10^6 transformed cells were cultured for 24 hrs in a 10 cm tissue culture dish with 10 ml RPMI 1640 medium. HDAC inhibitors and/or other agents were added in concentrations as indicated for each study to the cultures and cell cultured for times indicated. Cells were harvested by scrapping, washed once with PBS, lyzed with histone extraction buffer (1 ml/10^7 cells), which contains 10 mM MgCl2, 10 mM Tris, 25 mM KCl, 1% Triton X-100, 8.6% sucrose and protease inhibitor cocktail (Roche Diagnostics Gmbh, Indianapolis, Ind.), pH 6.5. Cells were centrifuged at 600 g at 4° C. for 5 mins. The supernatants were saved as cell lyates. The pellets (nuclei) were washed once with TE buffer, suspended in 0.4 NH2SO4 (100 μl/10^7 cells), incubated for 1 hr on ice, and centrifuged at 10,000 g for 10 mins at 4° C. The supernatant was collected, mixed with 1 ml acetone, incubated at −20° C. for more than 1 hr, and centrifuged at 10,000 g for 10 mins at 4° C. The pellets were suspended in water (100 μl/10^7 cells). The protein concentrations were measured with Braford reagent (Bio-Rad, Hercules, Calif.).
1×10^6 cells in a 10 cm diameter cell culture dish were washed with PBS, harvested by trypsinization in 0.05% trypsin for LNCaP and 0.25% trypsin for MCF7, A549, HFS and WI38 resuspended in RIPA at 50 μl for every 1×10^6 cells. Antibodies used were: anti-acetylated tubulin (Sigma), anti-HDAC 6 (Santa Cruz Biotechnology), and anti-tubulin (Calbiochem), (Xu et al. Cancer Research, 65:7832-7839, 2005).

recombinant human HDAC1 = recombinant human HDAC1 (Homo sapiens, UniProt Q13547); experiment: In vitro HDAC assay with fluorogenic substrate, HDAC 1
Description: Inhibition of HDAC 1 and HDAC 6 were analyzed with a fluorogenic substrate according to manufacture's protocol (HDAC assay reagents were purchased from BPS Biosciences, San Diego, Calif.). 50 μl reaction mixture, which contains 1×HDAC assay buffer, 5 units of recombinant human HDAC1 or HDAC 6, 10 μM substrate 3 and 1 μl inhibitor in DMSO, was incubated at 37° C. for 1 hour. […] The fluorescence intensity was measured at excitation of 360 nm and emission of 460 nm with SpectraMax Gemini XS microplate reader (Molecular Devices, Sunny Calif.).

LNCaP cells [2] = experiment: Cell growth and viability by trypan blue exclusion, LNCaP
Description: (§1) 5×10^4 cells were seeded per well in a 24-well plate and cultured overnight prior to treating with the compound and/or other agents as indicated for each study. Cells were harvested at 24, 48 and 72 hrs after treatment by trypsin digestion. […] At least three independent analyses were performed for each time point.
(§2) To monitor cell growth and viability, cells were seeded in triplicate at 5×10^4 cells in 1 ml of medium in 24-well plates. The drugs were added at the indicated concentrations 24 h after seeding. Cells were harvested by trypsin digestion at 24 h, 48 h and 72 h following drug additions. Cell number and viability were determined by trypan blue exclusion.

LNCaP cells [3] = experiment: Quantitative real-time PCR in LNCaP cells; format: cell-based, human; settings: for expression of Mcm4, Mcm6, Cdt1 and Psf2: quantitative real-time PCR
Description: […] of total RNA was reverse-transcribed using the Thermoscript RT-PCR system (Invitrogen) at 52° C. for 1 h. 20 ng of resultant cDNA was used in a Q-PCR reaction using an 7500 Real-Time PCR System (Applied Biosystems) using predesigned primers for DDIT3, DDIT4, Mcm4, Mcm6, Cdt1, Psf2 and GAPDH (Applied Biosystems). Amplification was carried for 40 cycles (95° C. for 15 sec, 60° C. for 1 min). To calculate the efficiency of the PCR reaction, and to assess the sensitivity of each assay, we performed a 6 point standard curve (5, 1.7, 0.56, 0.19, 0.062, and 0.021 ng). Triplicate CT values were averaged, amounts of target were interpolated from the standard curves and normalized to GAPDH (assay Hs99999909_m1).

WI38 cells = experiment: Cell viability, normal human embryonic fibroblast WI38; format: cell-based; settings: 8 μM tubacin, 5 μM SAHA, alone or together
Description: as §1

PARP = PARP cleavage in LNCaP cells (Western blot); settings: 48 h
Description: (§3) 1×10^6 cells were seeded in a 10 cm diameter cell culture dish and cultured overnight prior to addition of the indicated drugs, washed with PBS, harvested by trypsinisation and lysed in RIPA buffer (50 mM Tris-HCL pH8.0, 120 mM NaCl, 0.5 mM EDTA, 0.5% NP-40). […] Quantitation of western blots was performed using ImageJ.

[4] = system: LNCaP HDAC 6 knockdown cells; experiment: Cell viability, LNCaP HDAC 6 knockdown cells; format: cell-based, human
Source text: shRNA lentiviral particles targeting different regions of HDAC6 mRNA, HDAC6 KD1 (HDAC6 knockdown 1) at 1.7×10^7 TU/ml and HDAC6 KD2 (HDAC6 knockdown 2) at 1.9×10^7 TU/ml, and a non-targeting ‘scramble’ shRNA control particles (#SHC002V) at 1.1×10^7 TU/ml, were purchased from Sigma-Aldrich and transfected according to the manufacturer's instructions using polybrene (Millipore). The 21-nucleotide sequence corresponding to HDAC6 mRNA for HDAC6 KD1 is 5′-[…]-3′ and for HDAC6 KD2 is 5′-[…]-3′. For each shRNA, 5×10^5 cells were infected at an MOT of 2.

LNCaP cells [5] = experiment: Microarray analysis of gene expression in LNCaP cells; format: cell-based, human; parameters: Total gene number: dose or concentration left out as unconfirmed
Description: Alterations in gene expression were evaluated by microarray using the Illumina human cDNA array containing cDNA probes representing the whole genome (10000 genes). […] Triplicate samples were prepared for each drug treatment at each time point. Poly(A)+ mRNA was isolated from cells using Trizol reagent according to manufacturer's protocol (Invitrogen). The data was analyzed using the Bioconductor packages (www.bioconductor.com) for the R statistical system. The output from Beadstudio was processed using the LUMI package. The normalization method used was quantile and the signal levels were log (base 2) transformed. To determine genes that are differentially expressed between the various sample types, the LIMMA package was used.

MCF-7 cells = experiment: Cell growth and viability by trypan blue exclusion, MCF-7; format: cell-based, human; settings: MCF-7, 72 hrs; 8 μM tubacin, 5 μM SAHA, […] doxorubicin, 100 μM etoposide, alone or plus 8 μM tubacin
Description: as §1, §2

LNCaP cells [6] = experiment: Cell cycle analysis by flow cytometry, LNCaP; format: cell-based, human; settings: 24 h, propidium iodide
Description: Cells were harvested at 24 h culture with the indicated drugs, washed with PBS and fixed in methanol. Cells were then resuspended in a buffer containing […] propidium iodide and […] RNase A. Samples were analysed by flow cytometry using a Becton Dickinson FACSCalibur flow cytometer. Data were collected for 10,000 events and analyzed using FlowJo software.

γH2AX = experiment: Accumulation of γH2AX in LNCaP cells (Western blot, ImageJ quantitation); format: cell-based, human; settings: 24 h
Description: as §3

HFS cells = experiment: Cell viability, normal human foreskin cells (HFS); format: cell-based; settings: 8 μM tubacin, 5 μM SAHA, alone or together
Description: as §1, §2

phospho-Chk2 = experiment: Accumulation of phospho-Chk2 in LNCaP cells (Western blot); format: cell-based, human; settings: 24 h
Description: as §3

[7] = system: acetylated tubulin and acetylated histone H3 in A549 cells; settings: 24 hrs, tubacin 0.2, 2 or 20 μM; cited from earlier work
[8] = LNCaP, 25 μM or 50 μM SAHA, 72 hrs

recombinant human HDAC1, sequence (Q13547 whole entry): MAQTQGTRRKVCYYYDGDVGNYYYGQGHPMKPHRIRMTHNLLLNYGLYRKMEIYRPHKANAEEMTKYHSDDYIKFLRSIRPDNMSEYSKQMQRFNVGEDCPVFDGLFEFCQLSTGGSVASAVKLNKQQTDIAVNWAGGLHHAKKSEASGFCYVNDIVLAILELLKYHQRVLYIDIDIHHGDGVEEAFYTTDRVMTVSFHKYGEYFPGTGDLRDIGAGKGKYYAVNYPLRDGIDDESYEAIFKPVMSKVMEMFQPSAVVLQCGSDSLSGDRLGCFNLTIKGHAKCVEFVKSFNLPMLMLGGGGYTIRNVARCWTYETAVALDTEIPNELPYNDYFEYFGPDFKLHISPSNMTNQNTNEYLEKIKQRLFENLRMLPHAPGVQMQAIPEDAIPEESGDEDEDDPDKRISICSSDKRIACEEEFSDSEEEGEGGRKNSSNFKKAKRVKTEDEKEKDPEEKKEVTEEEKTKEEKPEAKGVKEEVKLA

IC50 (recombinant human HDAC1): 53.7 nM
SMILES: CC(C)(C)OC(=O)Nc1ccc(-c2cc(C(=O)NCCCCCCC(=O)NO)no2)cc1 [BAHA]
accumulation of acetylated histone H3 [1]: little or no accumulation
accumulation of acetylated α-tubulin [1]: caused the accumulation
cell death (LNCaP cells [2]; LNCaP, 1 μM BAHA): no cell death
cell growth (LNCaP cells [2]; LNCaP, 1 μM BAHA): moderate inhibition

SMILES: O=C(CCCCCCC(=O)Nc1ccccc1)NO [SAHA, Suberoylanilide Hydroxamic Acid]
expression of Mcm4, Mcm6, Cdt1 and Psf2 (LNCaP cells [3]): downregulated
accumulation of acetylated histone H3 [1]: caused an increase in accumulation
accumulation of acetylated α-tubulin [1]: caused an increase in accumulation
cell death (LNCaP cells [2]; LNCaP, 1.25 μM SAHA, alone or plus 1 μM BAHA, 72 hrs): no detectable cell death
cell death (LNCaP cells [2]; LNCaP, 2.5 μM SAHA, alone or plus 1 μM BAHA, 72 hrs): less than 10%
cell death (LNCaP cells [2]; LNCaP, 2.5 μM SAHA, alone or with 8 μM tubacin, 72 hrs): no detectable
cell death (LNCaP cells [2]; LNCaP, 5 μM SAHA, alone or plus 1 μM BAHA, 72 hrs): 65%
cell death (LNCaP cells [2]; LNCaP, 5 μM SAHA, alone or with 8 μM tubacin, 72 hrs): 45%
cell death (LNCaP cells [2]; [8]): 100%
cell growth (LNCaP cells [2]; [8]): growth inhibition
rate of cell growth (LNCaP cells [2]; LNCaP, 2.5, 5 or […] SAHA, alone or plus 8 μM tubacin): markedly decreased
cell death (LNCaP cells [2]; LNCaP, […] SAHA, alone or plus 8 μM tubacin, after 8 hrs): 40%
cell death (LNCaP cells [2]; wild type LNCaP, 2.5 μM SAHA, 72 hrs (knockdown comparison)): no cell death
cell death (LNCaP cells [2]; wild type LNCaP, 5.0 μM SAHA, 72 hrs (knockdown comparison)): 35%
cell death (WI38 cells): did not cause cell death
PARP cleavage (PARP; 2.5 mM SAHA): did not result in PARE cleavage
PARP cleavage (PARP; 5 mM SAHA): resulted in PARP cleavage
cell death ([4]; LNCaP HDAC 6 knockdown, 2.5 μM SAHA, 72 hrs): 25%
cell death ([4]; LNCaP HDAC 6 knockdown, 5.0 μM SAHA, 72 hrs): 80%
DDIT3 gene expression change (LNCaP cells [5]; 2 h): 2.18 fold
DDIT4 gene expression change (LNCaP cells [5]; 2 h): * (No detectable change of ≧2-fold)
Total gene number (LNCaP cells [5]; 2 h, genes changed ≧2-fold): 37
Downregulated genes (LNCaP cells [5]; 2 h, ≧2-fold): 16
Upregulated genes (LNCaP cells [5]; 2 h, ≧2-fold): 21
DDIT4 gene expression change (LNCaP cells [5]; 8 h): 5.36 fold
Downregulated genes (LNCaP cells [5]; 8 h, ≧2-fold): 302
Total gene number (LNCaP cells [5]; 8 h, ≧2-fold): 628
Upregulated genes (LNCaP cells [5]; 8 h, ≧2-fold): 326
DDIT4 gene expression change (LNCaP cells [5]; 24 h): 3.81 fold
Downregulated genes (LNCaP cells [5]; 24 h, ≧2-fold): 989
Total gene number (LNCaP cells [5]; 24 h, ≧2-fold): 1951
Upregulated genes (LNCaP cells [5]; 24 h, ≧2-fold): 962
cell death (MCF-7 cells): 40%
rate of cell growth (MCF-7 cells): markedly decreased
cell cycle distribution (LNCaP cells [6]): increase in both G1 and G2 arrested cells
accumulation of γH2AX (γH2AX): increased
cell death (HFS cells): did not cause cell death
level of phospho-Chk2 (phospho-Chk2): increase of phospho-Chk2

SMILES: CC(/C=C/C(=O)NO)=C\[C@@H](C)C(=O)c1ccc(N(C)C)cc1 [Trichostatin A]
accumulation of acetylated histone H3 [7]: caused the accumulation
accumulation of acetylated tubulin [7]: caused the accumulation

SMILES: COc1cccc2c1C(=O)c1c(O)c3c(c(O)c1C2=O)C[C@@](O)(C(=O)CO)C[C@@H]3O[C@H]1C[C@H](N)[C@H](O)[C@H](C)O1 [doxorubicin]
cell death (LNCaP cells [2]; LNCaP, 5 nM doxorubicin, alone or plus 8 μM tubacin, 48 hrs): 40%
rate of cell growth (LNCaP cells [2]; LNCaP, 10 nM doxorubicin, alone or plus 8 μM tubacin): decreased
cell death (LNCaP cells [2]; LNCaP, […] doxorubicin, alone or plus 8 μM tubacin, 48 hrs): 80%
cell death (LNCaP cells [2]; wild type LNCaP, 10 nM doxorubicin, 72 hrs): 45%
cell death (LNCaP cells [2]; wild type LNCaP, 100 nM doxorubicin, 72 hrs): 75%
cell death (LNCaP cells [2]; wild type LNCaP, 500 nM doxorubicin, 72 hrs): 85%
cell death ([4]; LNCaP HDAC 6 knock down, 10 nM doxorubicin, 72 hrs): 85%
cell death ([4]; LNCaP HDAC 6 knock down, 100 nM doxorubicin, 72 hrs): 90%
cell death ([4]; LNCaP HDAC 6 knock down, 500 nM doxorubicin, 72 hrs): 95%
cell death (MCF-7 cells): 25%
rate of cell growth (MCF-7 cells): markedly decreased

SMILES: COc1cc([C@@H]2c3cc4c(cc3[C@@H](O[C@@H]3O[C@@H]5CO[C@@H](C)O[C@H]5[C@H](O)[C@H]3O)[C@H]3COC(=O)[C@H]23)OCO4)cc(OC)c1O [etoposide]
expression of Mcm4, Mcm6, Cdt1 and Psf2 (LNCaP cells [3]): downregulated
cell death (LNCaP cells [2]; LNCaP, 50 μM etoposide, alone or plus 8 μM tubacin, 72 hrs): 50%
cell death (LNCaP cells [2]; LNCaP, 100 μM etoposide, alone or plus 8 μM tubacin, 72 hrs): 80%
cell death (LNCaP cells [2]; wild type LNCaP, 10 μM etoposide, 48 hrs): 10%
cell death (LNCaP cells [2]; wild type LNCaP, 50 μM etoposide, 48 hrs): 30%
cell death (LNCaP cells [2]; wild type LNCaP, 100 μM etoposide, 48 hrs): 40%
cell death ([4]; LNCaP HDAC 6 knockdown, 10 μM etoposide, 48 hrs): 20%
cell death ([4]; LNCaP HDAC 6 knockdown, 50 μM etoposide, 48 hrs): 35%
cell death ([4]; LNCaP HDAC 6 knockdown, 100 μM etoposide, 48 hrs): 55%
cell death (MCF-7 cells): 30%
rate of cell growth (MCF-7 cells): markedly decreased
cell cycle distribution (LNCaP cells [6]): small increase in cells in G1

SMILES: O=C(CCCCCCC(=O)Nc1ccc([C@H]2O[C@@H](CSc3nc(-c4ccccc4)c(-c4ccccc4)o3)C[C@@H](c3ccc(CO)cc3)O2)cc1)NO [tubacin]
DDIT4 expression by quantitative real-time PCR (LNCaP cells [3]): upregulation
expression of Mcm4, Mcm6, Cdt1 and Psf2 (LNCaP cells [3]): downregulated
IC50 (recombinant human HDAC1): 82 nM
cell death (LNCaP cells [2]; LNCaP, tubacin alone (8 μM), up to 72 hrs): did not cause cell death; also recorded: did not induce LNCaP cell death
cell death (WI38 cells): did not cause cell death
DDIT3 gene expression change (LNCaP cells [5]; 2 h): * (No detectable change of ≧2-fold)
Total gene number (LNCaP cells [5]; 2 h, genes changed ≧2-fold): 1
Downregulated genes (LNCaP cells [5]; 2 h, ≧2-fold): 0
Upregulated genes (LNCaP cells [5]; 2 h, ≧2-fold): 1
DDIT4 gene expression change (LNCaP cells [5]; 8 h): 5.54 fold
Downregulated genes (LNCaP cells [5]; 8 h, ≧2-fold): 1
Total gene number (LNCaP cells [5]; 8 h, ≧2-fold): 7
Upregulated genes (LNCaP cells [5]; 8 h, ≧2-fold): 6
DDIT3 gene expression change (LNCaP cells [5]; 24 h): 7 fold and 7.04 fold
DDIT4 gene expression change (LNCaP cells [5]; 24 h): 6.8 fold
Downregulated genes (LNCaP cells [5]; 24 h, ≧2-fold): 72
Total gene number (LNCaP cells [5]; 24 h, ≧2-fold): 225
Upregulated genes (LNCaP cells [5]; 24 h, ≧2-fold): 153
cell death (MCF-7 cells): did not induce MCF-7 cell death
rate of cell growth (MCF-7 cells): somewhat decreased
accumulation of acetylated histone H3 [7]: but not acetylated histone H3
accumulation of acetylated tubulin [7]: caused an accumulation
cell cycle distribution (LNCaP cells [6]): increase in G1 arrest
accumulation of γH2AX (γH2AX): increased
cell death (HFS cells): did not cause cell death
